Experimental data: patent US12383573B2, “Use of luteolin-7-O-glucoside or luteolin-7-O-glucuronide in preparation of medicine for eye injuries” (BEIJING CHENGYI INVESTMENT CO., LTD., priority 2019, dated 2025)

How the values were obtained:
Type in all cases: cell-based
[1] = system: human retinal pigment epithelial cells ARPE-19; experiment: Cytotoxicity on human retinal pigment epithelial cells ARPE-19 (MTT); details: ARPE-19, 12.5˜100 μmol/L, 24 h
Protocol: ARPE-19 cells (purchased from Guangzhou Jinnuo Biotechnology Co., Ltd., China) were seeded into RPMI-1640 low-glucose cell culture medium containing 10% fetal bovine serum and 1% dual-antibiotics (penicillin-streptomycin) (culture medium containing 2 g/L D-glucose, 0.3 g/L L-glutamine and 2 g/L sodium bicarbonate), and the medium was replaced once every 3 days for future use.
Cells at exponential growth phase were used, and 100 μl of complete medium was added to each well to reach a concentration of 1×10^4 cells/mL. Then the cells were cultured in a humidified atmosphere at 37° C. and 5% CO2 for 24 h. After the cells fully adhered, luteolin-7-O-glucoside and luteolin-7-O-glucuronide with final concentrations of 12.5 μmol/L, 25 μmol/L, 50 μmol/L, and 100 μmol/L were added respectively, and cultured for 24 h.
The cell viability was determined by the 3-(4,5-dimethyl-2-thiazolyl)-2,5-diphenyl-2-H-tetrazolium […] (MTT) method: 20 μl of 5 mg/ml MTT was added to each well, and the cells were cultured in a CO2 incubator for 4 h, with all operations shielded from light. […] The absorbance of ARPE-19 cells was measured with a microplate reader at 490 nm, and the cell survival rate was calculated as follows: cell survival rate=(OD value of experimental group−OD value of blank group)/(OD of control group−OD of blank group)×100%.

[2] = system: human retinal pigment epithelial cells ARPE-19; experiment: Blue light-induced damage to A2E-pretreated ARPE-19 cells, cell survival (MTT); details: 12.5˜50 μmol/L
Protocol: ARPE-19 cells were seeded into RPMI-1640 low-glucose cell culture medium containing 10% fetal bovine serum and 1% dual-antibiotics (penicillin-streptomycin), and the medium was replaced once every 3 days for future use.
Cells at exponential growth phase were used, and cells at 500 μl/well were seeded to a 24-well cell culture plate at a concentration of 5×10^4 cells/mL, and cultured in a humidified atmosphere at 37° C. and 5% CO2. After the cells fully adhered, the medium was replaced with the DMEM culture medium containing 25 μmol/L N-retinylidene-N-retinyl ethanolamine (A2E) for 2 hours of culture. Then, the supernatant was discarded, and the cells were washed 3 times with PBS, added with the luteolin-7-O-glucoside and luteolin-7-O-glucuronide with final concentrations of 12.5 μmol/L, 25 μmol/L, and […] respectively for 6 h of continuous culture, and then placed in a blue light device (50W LED blue light board with a blue light intensity of 3230˜3540 Lux) for 4 h of irradiation. After the light irradiation, the cells were placed in a 37° C. and 5% CO2 incubator again and continued to incubate for 24 h. […] The OD values were measured with a multi-well microplate reader at 490 nm, and the cell survival rate was calculated as follows: cell survival rate=(OD value of experimental group−OD value of blank group)/(OD of control group−OD of blank group)×100%. […]

[3] = system: human retinal pigment epithelial cells ARPE-19; experiment: Intracellular ROS content by DHE staining in blue light-damaged ARPE-19 cells; details: A2E + blue light, vs model group
Protocol: A single layer of ARPE-19 cells were seeded and cultured in a 24-well plate with a cell concentration of 5×10^4 cells/well. After treatment as described in Example 2, the cells were washed twice with PBS and reactive oxygen species (ROS) fluorescent probe dihydroethidium (DHE) staining solution with a concentration of 20 μmol/L was added, and the cells were incubated at 37° C. for 20 min. Then, the cells were washed twice with PBS to fully remove the DHE probe that had not entered the cell, and then imaging was performed under an inverted microscope with an excitation wavelength of 540 nm and an emission wavelength of 590 nm.

[4] = system: human retinal pigment epithelial cells ARPE-19; experiment: Hoechst 33342 nuclear staining (apoptosis) in blue light-damaged ARPE-19 cells; details: A2E + blue light, vs model group
Protocol: The cells were seeded in a 24-well plate (5×10^4 cells/well), and after the treatment as previously described, the fix solution was added and incubated for 30 min. Then the cells were washed three times with PBS, added with live cell staining solution (Hoechst 33342) with a concentration of 20 μg/mL, and incubated for 15 min at room temperature shielded from light. After the cells were washed with PBS, imaging was performed under an inverted fluorescence microscope with an excitation wavelength of 365 nm and an emission wavelength of 460 nm.

| Compound | cytotoxicity on ARPE-19 (in words) [1] | concentration dependence of the cell survival rate (in words) [2] | intracellular fluorescence intensity (ROS content, DHE staining) [3] | cell status / nuclear condensation (Hoechst 33342, apoptosis) [4] |
| --- | --- | --- | --- | --- |
| O=C(O)[C@H]1O[C@@H](Oc2cc(O)c3c(=O)cc(-c4ccc(O)c(O)c4)oc3c2)[C@H](O)[C@@H](O)[C@@H]1O [luteolin-7-O-glucuronide] | no cytotoxicity | concentration-dependent |  |  |
| O=c1cc(-c2ccc(O)c(O)c2)oc2cc(O[C@@H]3O[C@H](CO)[C@@H](O)[C@H](O)[C@H]3O)cc(O)c12 [luteolin-7-O-glucoside] | no cytotoxicity | concentration-dependent | decreased significantly as the dose increased | the cell status had obviously improved |
